From PMC9030223, “MBP-11901 Inhibits Tumor Growth of Hepatocellular Carcinoma through Multitargeted Inhibition of Receptor Tyrosine Kinases” (Cancers, 2022)

Experiments:
[1] = tested on: HeLa; assay: CCK-8 cell proliferation/cytotoxicity assay; assay type: cell-based; conditions: Homo sapiens, 24 h
Experimental: (§1) Cell proliferation was detected using the Cell Counting Kit-8 (CCK-8, Cat. CK04-13; Dojindo Laboratories, Kumamoto, Japan) according to the manufacturer’s instruction. To evaluate cytotoxicity, cells were seeded in a 96-well plate (FHC, 1 × 10^4 cells/well; Caki-2, PLC/PFR.5, and MCF 10A, 1 × 10^4 cells/well; AML12, HepG2, Hep3B, and Huh-7 1.2 × 10^4 cells/well; HeLa, HEK-293, A549, and PC-3, 1.5 × 10^4 cells/well; HT-29, MCF-7, C6, and NE-4C, 2 × 10^4 cells/well). After attachment and stabilization of cells for 24 h, the medium was switched with fresh containing various concentrations (0, 1, 5, 10, 25, 50, and 100 μM) of MBP-11901, and cells were incubated for 22 h. Next, CCK-8 solution was added to each well, and cells were incubated for another 2 h. Absorbance was then measured at 450 nm using a microplate reader (SpectraMax i3, Molecular Devices, San Jose, CA, USA). The IC50 and log IC50 values were calculated using GraphPad Prism (version 5.02; GraphPad PRISM software Inc. San Diego, CA, USA). All experiments were independently performed 3 times. The graph of log IC50 values represents average values.

[2] = tested on: FHC colon epithelial cells; assay: CCK-8 cell proliferation/cytotoxicity assay; assay type: cell-based; conditions: Homo sapiens, FHC normal cells, 24 h
Experimental: as §1

[3] = tested on: PC3; assay: CCK-8 cell proliferation/cytotoxicity assay; assay type: cell-based; conditions: Homo sapiens, PC-3; PC3, 24 h
Experimental: as §1

[4] = tested on: HT-29; assay: CCK-8 cell proliferation/cytotoxicity assay; assay type: cell-based; conditions: Homo sapiens, HT-29, 24 h
Experimental: as §1

[5] = tested on: C6; assay: CCK-8 cell proliferation/cytotoxicity assay; assay type: cell-based; conditions: Rattus norvegicus, C6, 24 h
Experimental: as §1

[6] = tested on: HepG2; assay: CCK-8 cell proliferation/cytotoxicity assay; assay type: cell-based; conditions: Homo sapiens; HepG2, 24 h treatment
Experimental: as §1

[7] = tested on: HepG2 cells; assay: JC-1 mitochondrial membrane potential assay; assay type: cell-based, human
Experimental: Alterations in MMP were investigated utilizing the cationic dye tetraethylbenzimidazolylcarbocyanine iodide (JC-1) according to the manufacturer’s instructions (Cat. ab113850, Abcam, Cambridge, MA, USA). HepG2 cells were seeded in a 35 mm^2 dish at a density of 7.5 × 10^5 cells/dish and incubated for 24 h. Cells were treated with MBP-11901 for 2 h and media was changed with fresh one. Briefly, after 2 d incubation, cells were washed with 1× dilution buffer, and incubated with 1 μM JC-1 in 1× dilution buffer for 30 min at 37 °C. Cells were then washed 3 times with 1× dilution buffer. Fluorescence was measured under a fluorescence microscope (ECLIPSE Ti, Nikon, Melville, NY, USA) using an excitation filter of 530 nm ± 15 nm and an emission filter of 590 nm ± 17.5 nm.

[8] = target: T1, KIT (Homo sapiens, UniProt P10721); assay: KdELECT binding constant; conditions: mean ± S.D. (n = 2)
T1 construct: purchased Eurofins DiscoverX Corporation
T1 sequence (P10721 26-976): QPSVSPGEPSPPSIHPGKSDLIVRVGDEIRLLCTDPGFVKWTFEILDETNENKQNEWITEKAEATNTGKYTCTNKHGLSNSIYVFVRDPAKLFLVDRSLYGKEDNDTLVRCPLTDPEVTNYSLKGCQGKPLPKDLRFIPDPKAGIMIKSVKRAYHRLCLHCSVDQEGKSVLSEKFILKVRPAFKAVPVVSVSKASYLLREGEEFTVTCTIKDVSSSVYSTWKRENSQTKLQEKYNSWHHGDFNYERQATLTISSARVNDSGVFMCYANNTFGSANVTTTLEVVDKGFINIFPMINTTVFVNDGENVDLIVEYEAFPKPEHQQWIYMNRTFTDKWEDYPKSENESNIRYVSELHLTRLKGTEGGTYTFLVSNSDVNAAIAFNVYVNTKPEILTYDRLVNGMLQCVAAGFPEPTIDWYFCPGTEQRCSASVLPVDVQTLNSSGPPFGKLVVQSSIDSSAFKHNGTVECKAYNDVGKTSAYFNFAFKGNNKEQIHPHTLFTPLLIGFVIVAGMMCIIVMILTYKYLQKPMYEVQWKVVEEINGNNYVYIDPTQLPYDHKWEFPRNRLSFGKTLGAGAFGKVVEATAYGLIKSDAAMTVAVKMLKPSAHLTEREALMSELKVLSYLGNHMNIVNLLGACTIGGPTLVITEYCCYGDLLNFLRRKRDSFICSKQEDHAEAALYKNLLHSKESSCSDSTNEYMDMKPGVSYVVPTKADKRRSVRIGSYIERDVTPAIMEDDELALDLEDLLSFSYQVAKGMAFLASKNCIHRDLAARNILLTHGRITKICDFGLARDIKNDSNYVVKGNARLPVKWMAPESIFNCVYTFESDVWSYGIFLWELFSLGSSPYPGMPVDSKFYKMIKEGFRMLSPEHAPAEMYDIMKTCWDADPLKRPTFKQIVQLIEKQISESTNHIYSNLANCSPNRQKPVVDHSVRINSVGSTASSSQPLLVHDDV
Experimental: (§2) The profiling of MBP-11901 against a panel of 468 kinases was performed by DiscoverX using KINOMEscan technology, an active-site-dependent competition-binding assay (Eurofins DiscoverX Corporation, San Diego, CA, USA). Binding constants (Kd) were calculated by DiscoverX using KdELECT technology, a widely used assay for comparing selectivity across the kinome. The DiscoverX platform reports the thermodynamic Kd to facilitate direct comparison of inhibitor affinity across the kinome, independent of ATP concentration.

[9] = target: T2, FGFR2 (Homo sapiens, UniProt P21802); assay: KdELECT binding constant
T2 construct: purchased Eurofins DiscoverX Corporation
T2 sequence (P21802 22-821): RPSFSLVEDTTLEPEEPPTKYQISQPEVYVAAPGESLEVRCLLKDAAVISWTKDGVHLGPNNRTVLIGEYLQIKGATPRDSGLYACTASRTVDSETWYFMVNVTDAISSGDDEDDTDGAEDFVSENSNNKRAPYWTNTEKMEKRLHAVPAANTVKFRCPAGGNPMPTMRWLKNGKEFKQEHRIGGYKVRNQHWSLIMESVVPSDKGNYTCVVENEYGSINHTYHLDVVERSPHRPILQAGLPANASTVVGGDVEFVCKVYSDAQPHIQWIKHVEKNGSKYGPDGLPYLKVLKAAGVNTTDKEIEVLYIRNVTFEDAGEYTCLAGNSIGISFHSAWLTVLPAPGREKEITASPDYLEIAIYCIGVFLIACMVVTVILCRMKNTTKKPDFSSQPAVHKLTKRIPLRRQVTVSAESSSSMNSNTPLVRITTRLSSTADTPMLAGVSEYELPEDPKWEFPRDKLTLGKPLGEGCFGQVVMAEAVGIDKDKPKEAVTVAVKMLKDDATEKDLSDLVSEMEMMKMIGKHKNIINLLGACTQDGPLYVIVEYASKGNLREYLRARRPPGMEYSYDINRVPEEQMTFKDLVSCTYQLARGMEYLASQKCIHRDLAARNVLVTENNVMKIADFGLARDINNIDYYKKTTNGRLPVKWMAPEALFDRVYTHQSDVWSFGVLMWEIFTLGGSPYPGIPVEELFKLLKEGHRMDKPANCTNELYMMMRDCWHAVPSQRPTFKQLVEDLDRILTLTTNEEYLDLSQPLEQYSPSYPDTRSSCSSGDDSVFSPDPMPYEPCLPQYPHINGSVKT
Experimental: as §2

[10] = target: T3, EGFR (Homo sapiens, UniProt P00533); assay: KdELECT binding constant
T3 construct: purchased Eurofins DiscoverX Corporation
T3 sequence (P00533 25-1210): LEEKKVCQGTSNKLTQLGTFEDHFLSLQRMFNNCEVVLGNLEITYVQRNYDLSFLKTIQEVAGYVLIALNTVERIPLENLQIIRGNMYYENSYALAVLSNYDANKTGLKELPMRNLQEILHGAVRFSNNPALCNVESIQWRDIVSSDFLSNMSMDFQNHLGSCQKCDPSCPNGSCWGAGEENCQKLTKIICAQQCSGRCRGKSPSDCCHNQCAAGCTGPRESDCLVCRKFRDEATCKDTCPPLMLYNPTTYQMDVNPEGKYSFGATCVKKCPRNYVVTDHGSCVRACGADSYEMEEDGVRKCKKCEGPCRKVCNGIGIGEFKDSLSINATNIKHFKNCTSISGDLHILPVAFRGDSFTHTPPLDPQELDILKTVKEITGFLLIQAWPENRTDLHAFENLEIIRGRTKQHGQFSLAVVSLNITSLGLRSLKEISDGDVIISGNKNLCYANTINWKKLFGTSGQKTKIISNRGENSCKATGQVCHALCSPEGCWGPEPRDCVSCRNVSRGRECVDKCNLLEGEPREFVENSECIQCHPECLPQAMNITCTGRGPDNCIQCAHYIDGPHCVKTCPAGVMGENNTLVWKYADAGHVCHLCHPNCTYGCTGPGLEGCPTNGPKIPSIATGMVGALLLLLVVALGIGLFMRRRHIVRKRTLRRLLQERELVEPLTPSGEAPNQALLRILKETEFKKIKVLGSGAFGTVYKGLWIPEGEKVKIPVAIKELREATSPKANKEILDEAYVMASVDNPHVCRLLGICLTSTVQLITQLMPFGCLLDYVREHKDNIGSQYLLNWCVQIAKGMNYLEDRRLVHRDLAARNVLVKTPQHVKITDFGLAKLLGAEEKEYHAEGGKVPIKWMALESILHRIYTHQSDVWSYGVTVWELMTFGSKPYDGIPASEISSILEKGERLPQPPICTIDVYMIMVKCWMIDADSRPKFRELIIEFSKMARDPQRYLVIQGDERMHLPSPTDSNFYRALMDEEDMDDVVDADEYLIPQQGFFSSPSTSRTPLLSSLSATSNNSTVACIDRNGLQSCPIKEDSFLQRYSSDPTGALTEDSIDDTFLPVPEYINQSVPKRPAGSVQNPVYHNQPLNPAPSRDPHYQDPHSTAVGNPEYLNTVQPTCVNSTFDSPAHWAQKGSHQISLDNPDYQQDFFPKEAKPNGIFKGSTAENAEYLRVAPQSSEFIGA
Experimental: as §2

[11] = target: T4, FGFR1 (Homo sapiens, UniProt P11362); assay: KdELECT binding constant
T4 construct: purchased Eurofins DiscoverX Corporation
T4 sequence (P11362 22-822): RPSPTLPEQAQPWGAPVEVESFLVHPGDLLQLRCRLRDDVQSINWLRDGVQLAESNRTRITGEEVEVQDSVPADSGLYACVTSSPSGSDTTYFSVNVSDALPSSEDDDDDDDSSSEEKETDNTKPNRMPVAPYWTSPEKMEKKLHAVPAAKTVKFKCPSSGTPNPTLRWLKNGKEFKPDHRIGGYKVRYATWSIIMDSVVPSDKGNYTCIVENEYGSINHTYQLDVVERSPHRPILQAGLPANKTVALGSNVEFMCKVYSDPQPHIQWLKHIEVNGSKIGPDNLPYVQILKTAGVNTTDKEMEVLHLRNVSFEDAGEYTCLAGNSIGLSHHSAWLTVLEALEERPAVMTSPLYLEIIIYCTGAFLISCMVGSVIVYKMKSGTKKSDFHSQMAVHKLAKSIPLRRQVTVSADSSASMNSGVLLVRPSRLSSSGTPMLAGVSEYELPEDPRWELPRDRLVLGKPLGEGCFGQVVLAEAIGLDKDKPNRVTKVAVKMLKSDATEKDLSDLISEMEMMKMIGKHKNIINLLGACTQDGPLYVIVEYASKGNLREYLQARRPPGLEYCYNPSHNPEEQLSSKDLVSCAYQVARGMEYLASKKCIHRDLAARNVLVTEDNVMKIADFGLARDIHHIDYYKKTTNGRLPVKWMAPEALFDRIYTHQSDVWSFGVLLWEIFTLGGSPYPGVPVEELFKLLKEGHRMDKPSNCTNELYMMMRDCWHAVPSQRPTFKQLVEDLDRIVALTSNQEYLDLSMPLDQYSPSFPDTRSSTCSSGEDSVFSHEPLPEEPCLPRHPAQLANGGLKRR
Experimental: as §2

[12] = tested on: HepG2 cells; assay: Flow cytometry analysis of cell death (sub-G1); assay type: cell-based, human; conditions: 50 μM
Experimental: Approximately 1.5 × 10^6 HepG2 cells were suspended in […] PBS, and then […] 95% ethanol was added while vortexing. […] Incubation was continued at 37 °C for 30 min. Cellular DNA was then stained by applying […] propidium iodide (50 μg/mL) for 30 min at 25 °C. Stained cells were analyzed on a FACScan flow cytometer for relative DNA content based on increased red fluorescence.

[13] = Pharmacokinetics in mice (data not shown); assay type: in vivo

Q: Which results are given for `NCC(N)C(=O)Nc1ccc(-c2nc3ccccc3s2)cc1` (stereo not shown) [MBP-11901]?
A: IC50 [1]: 41.9 ± 3.38 µM; IC50 [2]: 72.7 ± 1.99 µM; IC50 [3]: 95 ± 0.82 µM; IC50 [4]: 29.86 ± 0.27 µM; IC50 [5]: 77.8 ± 9.73 µM; IC50 [6]: 5.16 ± 1.37 µM; mitochondrial potential (JC-1) [7]: decrease in mitochondrial potential; Kd [8]: 3.85 ± 1.15 µM; Kd [9]: > 30 µM; Kd [10]: > 30 µM; Kd [11]: > 30 µM; SubG1 ([12]; 8 h): 10.26%; SubG1 ([12]; 16 h): 17.39%; SubG1 ([12]; 24 h): 34.68%; bioavailability [13]: significantly high; half-life [13]: long
